Reference: the NIST ThermoML archive (doi:10.1016/j.jct.2014.12.008)
Numbers after ± are expanded uncertainties.

Conditions: Liquid, Closed cell (Static) method

CCC(N)CCN (stereo not given) [1,3-pentanediamine]
vapor or sublimation pressure (273.15 K): 0.026 ± 0.002 kPa | vapor or sublimation pressure (283.15 K): 0.064 ± 0.005 kPa | vapor or sublimation pressure (293.15 K): 0.144 ± 0.01 kPa | vapor or sublimation pressure (303.15 K): 0.299 ± 0.019 kPa | vapor or sublimation pressure (313.15 K): 0.585 ± 0.037 kPa | vapor or sublimation pressure (323.15 K): 1.081 ± 0.028 kPa | vapor or sublimation pressure (333.15 K): 1.902 ± 0.023 kPa | vapor or sublimation pressure (343.15 K): 3.206 ± 0.032 kPa | vapor or sublimation pressure (353.15 K): 5.201 ± 0.045 kPa | vapor or sublimation pressure (363.15 K): 8.153 ± 0.065 kPa

CC(CN)CCCN (stereo not given) [2-methyl-1,5-pentanediamine]
vapor or sublimation pressure (273.15 K): 0.004 ± 0.001 kPa | vapor or sublimation pressure (283.15 K): 0.011 ± 0.001 kPa | vapor or sublimation pressure (293.15 K): 0.028 ± 0.002 kPa | vapor or sublimation pressure (303.15 K): 0.065 ± 0.005 kPa | vapor or sublimation pressure (313.15 K): 0.137 ± 0.009 kPa | vapor or sublimation pressure (323.15 K): 0.274 ± 0.017 kPa | vapor or sublimation pressure (333.15 K): 0.519 ± 0.033 kPa | vapor or sublimation pressure (343.15 K): 0.934 ± 0.024 kPa | vapor or sublimation pressure (353.15 K): 1.611 ± 0.022 kPa | vapor or sublimation pressure (363.15 K): 2.67 ± 0.028 kPa
